Test results from PMC11109252, “Synthetic aporphine alkaloids are potential therapeutics for Leigh syndrome” (Scientific Reports, 2024).
Entries after “also recorded” stand apart in the source; their conditions may differ.

How the values were obtained:
[1] = system: LS patient-derived skin fibroblasts; assay: Anti-RSL3-induced cell death activity assay; type: cell-based; conditions: Homo sapiens, Skin fibroblast, 24 h, read-out: Anti-RSL3-induced cell death effect EC50
Description: RSL3 is a glutathione peroxidase 4 (GPx4) inhibitor that specifically induces ferroptosis. Ferroptosis is an iron-dependent non-apoptotic type of cell death caused by lipid peroxidation.
After 24 h of incubation, the reagents were added to the RSL3 (−) derivative (−) and RSL3 ( +) derivative ( +) groups. […] The final concentration of RSL3 was 50–200 nM that would cause approximately 80–90% cell death after 24 h of incubation. The percentage of viable cells was measured 24 h after addition of each reagent.

[2] = system: LS patient-derived skin fibroblasts; assay: Mitochondrial ATP production capacity (extracellular flux analyzer, OCR); type: cell-based, human; conditions: 100 nM compound
From the text: The extracellular flux analyzer Seahorse XFe96 (Agilent Technologies, Santa Clara, CA, USA) was used to evaluate the mitochondrial function. The extracellular flux analyzer measures the oxygen consumption rate (OCR) in the mitochondria during ATP synthesis and can also evaluate the intracellular mitochondrial function. The endpoints were the basal OCR, ATP-linked OCR, maximal OCR, and spare capacity, which are key indicators of the mitochondrial function in assays using living cells. Each indicator was calculated by continuously adding ATP synthase inhibitors (oligomycin, rotenone and antimycin A) and deconjugating agents (carbonyl cyanide-p-trifluoromethoxyphenylhydrazone [FCCP]) during the measurement (Fig. 6). […] The OCR was measured over time by adding oligomycin (2 μM concentration) 20 min after drug addition, FCCP (2 μM concentration) 50 min later, and rotenone and antimycin A (0.5 μM concentration) 80 min later.

GDF-15 [3] = assay: GDF-15 levels in the cell supernatant (ELISA); type: cell-based, human; conditions: 24 h after co-administration with RSL3, compared to RSL3-only
Description: GDF-15 is a biomarker that is elevated in the blood of patients with mitochondrial diseases and is used for the diagnosis of mitochondrial diseases and determination of therapeutic efficacy[26],[36]. […] As previously reported, GDF-15 levels were measured by an enzyme-linked immuno sorbent assay (ELISA) using the Quantikin Human GDF-15 ELISA Kit (R&D Systems, Minneapolis, MN, USA). Samples were obtained from anti-RSL3-induced cell death assays with candidate compounds (D31, D55, and D40), and cell supernatants 24 h after reagent addition were used for the assay. Measured values were calculated with reference to internal standards and compared to GDF-15 values.

[4] = system: LS patient-derived skin fibroblasts; assay: Anti-BSO-induced cell death activity assay; conditions: for EC50: viable cells 48 h after addition
[5] = system: LS patient-derived skin fibroblasts; conditions: cited from earlier work
GDF-15 [6] = conditions: cited from earlier work
[7] = cited from earlier work

| SMILES | EC50 [1] | Enhancement of mitochondrial ATP production [2] | GDF-15 elevation in cell supernatant (GDF-15 [3]) | Anti-BSO cell death effect retained (same as apomorphine) ([4]; comparison of D29, D30, D31) | ATP production in LS patient-derived skin fibroblasts [5] | GDF-15 elevation in culture supernatant (GDF-15 [6]) | Concentrations in the brain versus plasma [7] | EC50 ([4]; Homo sapiens, Skin fibroblast, 48 h, read-out: Anti-BSO-induced cell death effect EC50, co-added with BSO at a concentration giving 10%-20% cell viability) | EC50 ([4]; read-out: Anti-BSO-induced cell death effect EC50, co-added with BSO at a concentration giving 10%-20% cell viability) |
| --- | --- | --- | --- | --- | --- | --- | --- | --- | --- |
| COc1ccc2c(c1O)-c1cccc3c1[C@@H](C2)N(C)CC3 [D31, (9R)-4-methoxy-10-methyl-10-azatetracyclo[7.7.1.0²,⁷.0¹³,¹⁷]heptadeca-1(17),2,4,6,13,15-hexaen-3-ol] | 27 nM | showed any ability to enhance mitochondrial ATP production; also recorded: No significant enhancement | suppressed GDF-15 elevation; also recorded: significant decrease | retained its anti-BSO cell death effect; also recorded: the only compound with the same anti-BSO-induced cell death activity as apomorphine | – | – | – | – | – |
| CN1CCc2cccc3c2[C@H]1Cc1ccc(O)c(O)c1-3 [Apo, (9R)-10-methyl-10-azatetracyclo[7.7.1.0²,⁷.0¹³,¹⁷]heptadeca-1(17),2,4,6,13,15-hexaene-3,4-diol] | – | No significant enhancement | significant decrease | – | increase ATP production | inhibits GDF-15 elevation | up to three-fold higher | – | – |
| CCCOc1ccc2c(c1O)-c1cccc3c1[C@@H](C2)N(C)CC3 [D40, (9R)-10-methyl-4-propoxy-10-azatetracyclo[7.7.1.0²,⁷.0¹³,¹⁷]heptadeca-1(17),2,4,6,13,15-hexaen-3-ol] | 231 nM | showed any ability to enhance mitochondrial ATP production; also recorded: No significant enhancement | suppressed GDF-15 elevation; also recorded: significant decrease | – | – | – | – | < 100 nM | 55 nM |
